Assay [1] addresses T1, HpUPPS (Helicobacter pylori, UniProt P55984).
T1 construct: poly-Histidin-Tag (His6) (N); made in house; host or cells: E. coli BL21 (DE3)
As to the kind of experiment: Prenyltransferase activity test, conversion of FPP with elongation substrate (MTP phosphate detection assay). In kind it is biochemical. The note with it: 5 µM E,E-FPP, 200 µM elongation substrate, 50 µM enzyme, room temperature. On the procedure:
(§1) Die Aktivität der Prenyltransferasen wurde hinsichtlich der Umsetzung von Farnesyldiphosphat (FPP) als Startersubstrat und Isopentenyldiphosphat (IPP), und Cl-BPP bzw. Br-BPP mit Hilfe des MTP-Phosphatdetektionsassays bestimmt.
(§2) Cl-BPP und jeweils 50 µM Enzym bei Raumtemperatur durchgeführt. […] Cl-BPP gezeigt werden. Als Negativkontrolle diente ein Ansatz ohne Enzym (nicht gezeigt).

In assay [2] the target is T2, MtUPPS (Mycobacterium tuberculosis, UniProt P9WFF7).
T2 construct: poly-Histidin-Tag (His6) (N); made in house; host or cells: E. coli BL21 (DE3)
T2 sequence (P9WFF7 whole entry): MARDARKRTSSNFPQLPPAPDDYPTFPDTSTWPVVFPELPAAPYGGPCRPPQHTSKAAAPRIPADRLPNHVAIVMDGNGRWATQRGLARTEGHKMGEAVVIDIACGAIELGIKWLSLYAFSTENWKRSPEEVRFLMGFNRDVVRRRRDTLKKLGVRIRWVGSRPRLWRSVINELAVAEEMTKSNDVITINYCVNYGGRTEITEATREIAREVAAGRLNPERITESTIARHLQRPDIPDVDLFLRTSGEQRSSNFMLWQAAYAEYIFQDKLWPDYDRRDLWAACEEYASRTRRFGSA
The assay is described as above. In kind it is biochemical. The note with it: 5 µM E,E-FPP, 200 µM elongation substrate, 50 µM enzyme, room temperature. On the procedure:
as §1, §2

The target in assay [3] is T3, EcUPPS (Escherichia coli, UniProt P60472).
T3 construct: made in house; host or cells: E. coli
T3 sequence (P60472 whole entry): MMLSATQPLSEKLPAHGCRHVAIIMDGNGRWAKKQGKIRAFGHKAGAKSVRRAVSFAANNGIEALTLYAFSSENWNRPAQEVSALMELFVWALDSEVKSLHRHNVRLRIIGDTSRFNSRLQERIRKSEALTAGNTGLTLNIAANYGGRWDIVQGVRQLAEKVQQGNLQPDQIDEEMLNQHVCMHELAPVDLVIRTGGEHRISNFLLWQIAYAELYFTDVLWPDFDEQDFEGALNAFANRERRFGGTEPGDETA
Described as above. The class given is biochemical. The settings on record: 5 µM E,E-FPP, 200 µM elongation substrate, 50 µM enzyme, room temperature. The procedure:
as §1, §2

In assay [4] the target is T4, MIUPPS (Micrococcus luteus, UniProt O82827).
T4 construct: poly-Histidin-Tag (His6) (N); made in house; host or cells: E. coli BL21 (DE3)
T4 sequence (O82827 1-249): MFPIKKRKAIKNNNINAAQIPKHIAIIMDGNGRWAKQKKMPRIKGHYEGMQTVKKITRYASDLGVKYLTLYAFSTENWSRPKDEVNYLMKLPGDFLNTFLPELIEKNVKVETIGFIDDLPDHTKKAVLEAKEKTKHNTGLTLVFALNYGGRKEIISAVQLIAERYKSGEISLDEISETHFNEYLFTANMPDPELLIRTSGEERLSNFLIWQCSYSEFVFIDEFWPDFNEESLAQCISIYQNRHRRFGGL
The description is as above. In kind it is biochemical. The note with it: 5 µM E,E-FPP, 200 µM elongation substrate, 50 µM enzyme, room temperature. On the procedure: as §1, §2

Assay [5] deals with T5, ThkCPT (Thermococcus kodakarensis, UniProt Q5JGE1).
T5 construct: made in house; host or cells: E. coli
T5 sequence (Q5JGE1 1-264): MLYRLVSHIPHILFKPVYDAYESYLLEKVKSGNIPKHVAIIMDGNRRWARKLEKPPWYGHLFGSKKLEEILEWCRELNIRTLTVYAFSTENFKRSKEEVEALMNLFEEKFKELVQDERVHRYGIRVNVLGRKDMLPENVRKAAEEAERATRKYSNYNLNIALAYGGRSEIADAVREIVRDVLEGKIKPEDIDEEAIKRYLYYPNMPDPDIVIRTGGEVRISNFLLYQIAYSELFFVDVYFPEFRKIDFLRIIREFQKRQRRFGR
The assay can be described thus: Product chain length by HPLC with fluorescent starter substrate 110. In kind it is biochemical, Thermococcus kodakaraensis. The settings on record: 10 µM ThkCPT, 110 as starter substrate, room temperature 25°C. On the procedure: Zur Bestimmung der Produktkettenlängen wurden 500 µL Enzymassays in MS-Gläschen durchgeführt. […] Die Extraktion der Polyprenyldiphosphate erfolgte mit 500 µL 1-Butanol. Die Butanolphase wurde in ein neues Glas überführt und unter Stickstoffstrom von dem Lösungsmittel befreit. Die Hydrolyse der Diphosphate zum Polyprenol erfolgte durch Zugabe von 200 µL Hydrolysepuffer (20% Isopropanol, 4,4 Units/mL saure Phophatase aus Kartoffeln, 0,1 % Triton X-100, 50 mM Natriumacetat (pH 4,7)) und wurde über Nacht bei 37 °C inkubiert. Die Polyprenole wurden mit 500 µL nHexan extrahiert und zur weiteren DC- oder HPLC-Analyse vorbereitet. Für DC-Experimente und LC/ESI-MS-Analysen wurde die nHexan-Phase in ein neues Glas überführt, das Lösungsmittel abgedampft und die Produkte erneut in 100 µL nHexan resuspendiert um eine Aufkonzentrierung zu erreichen. Für HPLC-Analysen mit 110 ((2E,6E)-8-O-(N-methyl-2-aminobenzoyl)-3,7-dimethyl-2,6-octandien-1-diphosphat) als Startersubstrat wurde die nHexan-Phase 1:3 verdünnt in das HPLC-System mittels Autosampler injiziert.
Die HPLC-Analyse der Polyprenole erfolgte an einer Anlage von Merck HITACHI D-7000, wobei als stationäre Phase eine YMC-ODS AQ (150 x 4 mm, 5 µm; YMC Europe GmbH, Dinslaken) Säule verwendet wurde. Die Elution erfolgte mit 1 mL·min^-1 und die Detektion bei 210 nm mit einem UV-VIS Detektor: Merck HITACHI L-7420. Das Injektionsvolumen betrug dabei 5 µL. Die mobile Phase setzte sich aus Laufmittel A (MeOH/H2O/Isopropanol 12:1:8 (v/v/v)) und Laufmittel B (nHexan/Isopropanol 7:3 (v/v)) zusammen. Die Probenaufgabe erfolgte mittels Autosampler (Merck HITACHI L-7250). [drawing 35]
Zur selektiven und vor allem sensitiven Detektion von Polyprenolen kann ein alternatives, fluoreszierendes Startersubstrat verwendet werden, (2E,6E)-8-O-(N-methyl-2-aminobenzoyl)-3,7-dimethyl-2,6-octandien-1-diphosphat (110). Die Analyse erfolgte wie in Beispiel 6 beschrieben. Dabei wurden 3 µL pro Probe injiziert und die Detektion erfolgte über Fluoreszenz: Ex 352 nm / Em 420 nm wobei das Gerät Merck HITACHI L-7480 als Fluoreszenzdetektor verwendet wurde. […]

T1 sequence (P55984 whole entry): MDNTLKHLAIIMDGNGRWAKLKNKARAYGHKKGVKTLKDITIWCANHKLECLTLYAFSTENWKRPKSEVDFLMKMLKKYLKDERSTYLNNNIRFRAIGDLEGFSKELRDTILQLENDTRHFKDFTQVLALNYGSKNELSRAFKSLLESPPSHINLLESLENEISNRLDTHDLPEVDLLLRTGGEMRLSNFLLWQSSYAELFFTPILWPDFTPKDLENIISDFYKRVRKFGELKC

Take `C=C(Cl)CCOP(=O)(O)OP(=O)(O)O` [Cl-BPP, 3-Chlor-3-Butenyldiphosphat]: the “Aktivität (Umsetzung von FPP mit Elongationssubstrat)” value in assay [1] is on record as “im geringeren Maße”; in assay [2], “höchste Aktivität”; in assay [3], “höchste Aktivität”; in assay [4], “im geringeren Maße”. Further, the “Kondensationen (Reaktionsprodukte)” value in assay [5] is listed as “mehr als zwei Kondensationen”.

The values above are taken from patent EP2848693A1, “Concatenation of halogenated alkenyl diphosphate derivatives” (LANXESS Deutschland GmbH, priority 2013, dated 2015).
